From publication PMC4980083 (JCI insight, 2016)
“And” between values parts separate entries of the source, which are not always exact repeats. Equal values may be shown once.

Assays:
endogenous AR = experiment: Binding to endogenous AR in LNCaP95 cells; format: cell-based, human; settings: 16 hours
[1] = Micro-SPECT/CT imaging of mice bearing LNCaP95 and PC3 xenografts; format: in vivo, male castrated NOD/SCID mice
[2] = Biodistribution with blocking by excess cold EPI-002; format: in vivo, male castrated NOD/SCID mice; settings: excess cold EPI-002 50 mg/kg body weight; 1 hour
[3] = target: T1, recombinant full-length AR (Homo sapiens, UniProt P10275); experiment: Cell-free binding to recombinant full-length AR; settings: 16 hours at room temperature
T1 sequence (P10275 1-920): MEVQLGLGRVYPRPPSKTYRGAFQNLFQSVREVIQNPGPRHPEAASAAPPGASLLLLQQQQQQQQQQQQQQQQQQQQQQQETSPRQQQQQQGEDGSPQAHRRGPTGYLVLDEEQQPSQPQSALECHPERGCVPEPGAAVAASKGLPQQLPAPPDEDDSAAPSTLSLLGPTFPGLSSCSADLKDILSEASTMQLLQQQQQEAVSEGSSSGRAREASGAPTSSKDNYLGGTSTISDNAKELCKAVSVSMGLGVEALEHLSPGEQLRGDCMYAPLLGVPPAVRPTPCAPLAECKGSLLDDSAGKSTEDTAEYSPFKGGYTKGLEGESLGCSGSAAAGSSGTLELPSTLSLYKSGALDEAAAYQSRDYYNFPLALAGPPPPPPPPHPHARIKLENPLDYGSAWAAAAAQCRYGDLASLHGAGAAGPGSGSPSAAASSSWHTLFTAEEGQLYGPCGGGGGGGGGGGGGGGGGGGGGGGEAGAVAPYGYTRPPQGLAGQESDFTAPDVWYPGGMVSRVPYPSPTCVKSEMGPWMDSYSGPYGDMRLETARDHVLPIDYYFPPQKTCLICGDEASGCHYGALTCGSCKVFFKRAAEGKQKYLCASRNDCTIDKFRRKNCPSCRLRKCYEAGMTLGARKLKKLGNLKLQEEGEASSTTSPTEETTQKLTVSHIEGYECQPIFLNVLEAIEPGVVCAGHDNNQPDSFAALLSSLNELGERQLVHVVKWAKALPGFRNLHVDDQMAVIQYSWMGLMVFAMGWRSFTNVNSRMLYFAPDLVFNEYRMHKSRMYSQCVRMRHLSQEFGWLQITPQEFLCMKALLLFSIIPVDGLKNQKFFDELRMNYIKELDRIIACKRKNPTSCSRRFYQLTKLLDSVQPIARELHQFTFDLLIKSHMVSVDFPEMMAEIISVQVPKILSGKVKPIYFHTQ

[4] = In vivo biodistribution in mice bearing LNCaP95 and PC3 xenografts; design: species or system male castrated NOD/SCID mice

Substance: [^123I]15-iodoEPI002 [^123I-EPI-002]
- binding to endogenous AR in LNCaP95 cells (endogenous AR): binds covalently and specifically to AR
- LNCaP95 tumor uptake (SPECT) ([1]; 2 hours after injection): 1.09% ± 0.41%
- thyroid uptake ([1]; blocking with EPI-002): 2.32% ± 0.33%
- thyroid uptake ([1]; unblocked): approximately 2.31% ± 0.59%
- decrease in ^123I-EPI-002 accumulation in the LNCaP95 xenograft by blocking [2]: 74%
- binding to recombinant full-length AR [3]: binds to recombinant full-length AR
- Bladder uptake ([4]; 0 h after injection): 0.79 ± 0.49 %ID/g
- Blood uptake ([4]; 0 h after injection): 12.57 ± 2.03 %ID/g
- Bone uptake ([4]; 0 h after injection): 1.09 ± 0.75 %ID/g
- Brain uptake ([4]; 0 h after injection): 1.29 ± 0.55 %ID/g
- Heart uptake ([4]; 0 h after injection): 7.62 ± 1.86 %ID/g
- Kidney uptake ([4]; 0 h after injection): 5.57 ± 2.37 %ID/g
- Large intestine uptake ([4]; 0 h after injection): 0.70 ± 0.42 %ID/g
- Liver uptake ([4]; 0 h after injection): 5.03 ± 3.29 %ID/g
- Lung uptake ([4]; 0 h after injection): 5.19 ± 1.59 %ID/g
- Muscle uptake ([4]; 0 h after injection): 1.60 ± 1.89 %ID/g
- Negative tumor (PC3) uptake ([4]; 0 h after injection): 0.19 ± 0.06 %ID/g
- Positive tumor (LNCaP95) uptake ([4]; 0 h after injection): 0.17 ± 0.06 %ID/g
- Ratio LNCaP95/PC3 ([4]; 0 h after injection): 0.9
- Ratio LNCaP95/blood ([4]; 0 h after injection): 0.01
- Ratio LNCaP95/kidney ([4]; 0 h after injection): 0.03
- Ratio LNCaP95/liver ([4]; 0 h after injection): 0.04
- Ratio LNCaP95/muscle ([4]; 0 h after injection): 0.22
- Small intestine uptake ([4]; 0 h after injection): 2.44 ± 1.05 %ID/g
- Spleen uptake ([4]; 0 h after injection): 1.15 ± 1.04 %ID/g
- Stomach uptake ([4]; 0 h after injection): 1.80 ± 1.60 %ID/g
- Bladder uptake ([4]; 1 h after injection): 1.47 ± 0.65 %ID/g
- Blood uptake ([4]; 1 h after injection): 0.74 ± 0.30 %ID/g
- Bone uptake ([4]; 1 h after injection): 1.03 ± 0.31 %ID/g
- Brain uptake ([4]; 1 h after injection): 1.68 ± 0.67 %ID/g
- Gallbladder uptake ([4]; 1 h after injection): 10.09 ± 6.60 %ID/g
- Heart uptake ([4]; 1 h after injection): 2.25 ± 0.50 %ID/g
- Kidney uptake ([4]; 1 h after injection): 3.07 ± 0.90 %ID/g
- Large intestine uptake ([4]; 1 h after injection): 1.22 ± 0.34 %ID/g
- Liver uptake ([4]; 1 h after injection): 7.76 ± 0.95 %ID/g
- Lung uptake ([4]; 1 h after injection): 2.40 ± 1.01 %ID/g
- Muscle uptake ([4]; 1 h after injection): 1.34 ± 0.40 %ID/g
- Ratio LNCaP95/PC3 ([4]; 1 h after injection): 3.2
- Ratio LNCaP95/blood ([4]; 1 h after injection): 3.58 ± 0.66 and 3.58
- Ratio LNCaP95/kidney ([4]; 1 h after injection): 0.71
- Ratio LNCaP95/liver ([4]; 1 h after injection): 0.29
- Ratio LNCaP95/muscle ([4]; 1 h after injection): 1.72
- Small intestine uptake ([4]; 1 h after injection): 7.43 ± 5.25 %ID/g
- Spleen uptake ([4]; 1 h after injection): 0.96 ± 0.23 %ID/g
- Stomach uptake ([4]; 1 h after injection): 1.73 ± 0.69 %ID/g
- Bladder uptake ([4]; 2 h after injection): 1.13 ± 0.55 %ID/g
- Blood uptake ([4]; 2 h after injection): 0.31 ± 0.08 %ID/g
- Bone uptake ([4]; 2 h after injection): 0.51 ± 0.11 %ID/g
- Brain uptake ([4]; 2 h after injection): 0.83 ± 0.21 %ID/g
- Gallbladder uptake ([4]; 2 h after injection): 2.12 ± 3.60 %ID/g
- Heart uptake ([4]; 2 h after injection): 1.04 ± 0.22 %ID/g
- Kidney uptake ([4]; 2 h after injection): 1.43 ± 0.58 %ID/g
- Large intestine uptake ([4]; 2 h after injection): 1.90 ± 2.02 %ID/g
- Liver uptake ([4]; 2 h after injection): 4.81 ± 1.13 %ID/g
- Lung uptake ([4]; 2 h after injection): 0.78 ± 0.19 %ID/g
- Muscle uptake ([4]; 2 h after injection): 0.49 ± 0.18 %ID/g
- Negative tumor (PC3) uptake ([4]; 2 h after injection): 0.35 ± 0.14 %ID/g
- Positive tumor (LNCaP95) uptake ([4]; 2 h after injection): 1.13 ± 0.16 %ID/g
- Ratio LNCaP95/PC3 ([4]; 2 h after injection): 3.3
- Ratio LNCaP95/blood ([4]; 2 h after injection): 3.74
- Ratio LNCaP95/kidney ([4]; 2 h after injection): 0.96
- Ratio LNCaP95/liver ([4]; 2 h after injection): 0.24
- Ratio LNCaP95/muscle ([4]; 2 h after injection): 2.51
- Small intestine uptake ([4]; 2 h after injection): 6.29 ± 3.72 %ID/g
- Spleen uptake ([4]; 2 h after injection): 0.71 ± 0.34 %ID/g
- Stomach uptake ([4]; 2 h after injection): 0.68 ± 0.31 %ID/g
- Bladder uptake ([4]; 4 h after injection): 0.52 ± 0.17 %ID/g
- Blood uptake ([4]; 4 h after injection): 0.25 ± 0.07 %ID/g
- Bone uptake ([4]; 4 h after injection): 0.39 ± 0.13 %ID/g
- Brain uptake ([4]; 4 h after injection): 0.55 ± 0.18 %ID/g
- Gallbladder uptake ([4]; 4 h after injection): 0.35 ± 0.03 %ID/g
- Heart uptake ([4]; 4 h after injection): 0.88 ± 0.18 %ID/g
- Kidney uptake ([4]; 4 h after injection): 1.05 ± 0.11 %ID/g
- Large intestine uptake ([4]; 4 h after injection): 66 %ID/g and 66.53 ± 34.05 %ID/g
- Liver uptake ([4]; 4 h after injection): 4.30 ± 0.68 %ID/g
- Lung uptake ([4]; 4 h after injection): 0.75 ± 0.24 %ID/g
- Muscle uptake ([4]; 4 h after injection): 0.45 ± 0.13 %ID/g
- Negative tumor (PC3) uptake ([4]; 4 h after injection): 0.50 ± 0.17 %ID/g
- Positive tumor (LNCaP95) uptake ([4]; 4 h after injection): 1.04 ± 0.14 %ID/g
- Ratio LNCaP95/PC3 ([4]; 4 h after injection): 2.1
- Ratio LNCaP95/blood ([4]; 4 h after injection): 4.38
- Ratio LNCaP95/kidney ([4]; 4 h after injection): 1.00
- Ratio LNCaP95/liver ([4]; 4 h after injection): 0.25
- Ratio LNCaP95/muscle ([4]; 4 h after injection): 2.57
- Small intestine uptake ([4]; 4 h after injection): 6.25 ± 2.18 %ID/g
- Spleen uptake ([4]; 4 h after injection): 0.55 ± 0.24 %ID/g
- Stomach uptake ([4]; 4 h after injection): 0.29 ± 0.19 %ID/g
- Bladder uptake ([4]; 6 h after injection): 0.39 ± 0.21 %ID/g
- Blood uptake ([4]; 6 h after injection): 0.17 ± 0.03 %ID/g
- Bone uptake ([4]; 6 h after injection): 0.21 ± 0.08 %ID/g
- Brain uptake ([4]; 6 h after injection): 0.39 ± 0.12 %ID/g
- Gallbladder uptake ([4]; 6 h after injection): 9.64 ± 16.02 %ID/g
- Heart uptake ([4]; 6 h after injection): 0.51 ± 0.13 %ID/g
- Kidney uptake ([4]; 6 h after injection): 0.65 ± 0.24 %ID/g
- Large intestine uptake ([4]; 6 h after injection): 47.42 ± 7.58 %ID/g
- Liver uptake ([4]; 6 h after injection): 2.92 ± 0.94 %ID/g
- Lung uptake ([4]; 6 h after injection): 0.50 ± 0.25 %ID/g
- Muscle uptake ([4]; 6 h after injection): 0.24 ±0.09 %ID/g
- Negative tumor (PC3) uptake ([4]; 6 h after injection): 0.49 ± 0.01 %ID/g
- Positive tumor (LNCaP95) uptake ([4]; 6 h after injection): 0.52 ± 0.10 %ID/g
- Ratio LNCaP95/PC3 ([4]; 6 h after injection): 1.1
- Ratio LNCaP95/blood ([4]; 6 h after injection): 3.12
- Ratio LNCaP95/kidney ([4]; 6 h after injection): 0.85
- Ratio LNCaP95/liver ([4]; 6 h after injection): 0.21
- Ratio LNCaP95/muscle ([4]; 6 h after injection): 2.56
- Small intestine uptake ([4]; 6 h after injection): 2.37 ± 1.43 %ID/g
- Spleen uptake ([4]; 6 h after injection): 0.30 ± 0.18 %ID/g
- Stomach uptake ([4]; 6 h after injection): 0.19 ± 0.08 %ID/g
- Bladder uptake ([4]; 12 h after injection): 0.09 ± 0.04 %ID/g
- Blood uptake ([4]; 12 h after injection): 0.07 ± 0.04 %ID/g
- Bone uptake ([4]; 12 h after injection): 0.07 ± 0.05 %ID/g
- Brain uptake ([4]; 12 h after injection): 0.10 ± 0.05 %ID/g
- Gallbladder uptake ([4]; 12 h after injection): 3.12 ± 0.81 %ID/g
- Heart uptake ([4]; 12 h after injection): 0.17 ± 0.10 %ID/g
- Kidney uptake ([4]; 12 h after injection): 0.16 ± 0.08 %ID/g
- Large intestine uptake ([4]; 12 h after injection): 27.02 ± 14.89 %ID/g
- Liver uptake ([4]; 12 h after injection): 1.06 ± 0.48 %ID/g
- Lung uptake ([4]; 12 h after injection): 0.16 ± 0.08 %ID/g
- Muscle uptake ([4]; 12 h after injection): 0.06 ± 0.03 %ID/g
- Negative tumor (PC3) uptake ([4]; 12 h after injection): 0.13 ± 0.13 %ID/g
- Positive tumor (LNCaP95) uptake ([4]; 12 h after injection): 0.15 ± 0.08 %ID/g
- Ratio LNCaP95/PC3 ([4]; 12 h after injection): 1.2
- Ratio LNCaP95/blood ([4]; 12 h after injection): 2.22
- Ratio LNCaP95/kidney ([4]; 12 h after injection): 0.92
- Ratio LNCaP95/liver ([4]; 12 h after injection): 0.14
- Ratio LNCaP95/muscle ([4]; 12 h after injection): 2.98
- Small intestine uptake ([4]; 12 h after injection): 2.14 ± 1.49 %ID/g
- Spleen uptake ([4]; 12 h after injection): 0.07 ± 0.03 %ID/g
- Stomach uptake ([4]; 12 h after injection): 1.78 ± 1.27 %ID/g
